This is an account of results in article PMC6131539, “Behavioral Effects of a Potential Novel TAAR1 Antagonist” (Frontiers in Pharmacology, 2018).

What all share (type): in vivo
Test [1] has as its system TAAR1-KO mice. The experiment in a line: Basal locomotor activity in TAAR1-KO mice. Conditions: 5 and 25 mg/kg alone, 60 min. As for the experimental part:
The Taarl^-/- (TAAR1-KO) mice were obtained from Lundbeck ([Wolinsky et al., 2007]). All wild type (WT) and TAAR1-KO mice used for experiments were generated from TAAR1-KO heterozygous mice in a C57BL/6J x 129S1/Sv mixed background. Experimentally naïve mice, of at least 12 weeks of age, were used for all behavioral experiments. The mice were randomly assigned to treatment or control groups, balanced by sex and weight. Locomotor activity was assessed using the automated locomotor analysis monitors (Omnitech Electronics, Columbus, OH, United States). The apparatus included four open field monitors. Each Open Field monitor consisted of sets of 16 light beams arrayed in the horizontal X and Y axes. The hardware detected beams broken by the animal, which allowed the software to determine the location of the mouse in the cage. Total distance covered by mice was used to characterize locomotor activity of the animals. The monitors were divided into four compartments (20 cm × 20 cm). Animals were tested individually for defined periods with 5-min intervals. The mice were first weighed and then placed into the apparatus, allowing for 30 min habituation. […] The locomotor activity was then measured for additional 1 h. […] The locomotor activity was assessed for 60 min following the injection. […]

The subject of test [2] is C57BL/6J mice. The experiment in a line: Stereotypic counts, co-injection with cocaine, C57BL/6J mice. To be noted: 5 and 25 mg/kg co-injected with cocaine 10 mg/kg; sum over 60 min.
In test [3] the test system is C57BL/6J mice. The experiment in a line: Amphetamine-induced locomotor activity, co-injection, C57BL/6J mice. Conditions: 60 min. As for the experimental part: Experimentally naïve mice, of at least 12 weeks of age, were used for all behavioral experiments. The mice were randomly assigned to treatment or control groups, balanced by sex and weight. Locomotor activity was assessed using the automated locomotor analysis monitors (Omnitech Electronics, Columbus, OH, United States). The apparatus included four open field monitors. Each Open Field monitor consisted of sets of 16 light beams arrayed in the horizontal X and Y axes. The hardware detected beams broken by the animal, which allowed the software to determine the location of the mouse in the cage. Total distance covered by mice was used to characterize locomotor activity of the animals. The monitors were divided into four compartments (20 cm × 20 cm). Animals were tested individually for defined periods with 5-min intervals. The mice were first weighed and then placed into the apparatus, allowing for 30 min habituation. Following the habituation, the mice were removed from the al apparatus and injected with drugs (see below for administration) or vehicle and returned immediately to the locomotor chamber. The locomotor activity was then measured for additional 1 h. After the experiments, the animals were euthanized by cervical dislocation.
All drug solutions were prepared freshly on the day of the experiment and injected i.p. at the volume of 10 ml/kg. […] Amphetamine was dissolved in 0.9% saline at a concentration of 0.2 mg/mL.
The effect of compound 22 (5, 15, 20, 30, and 50 mg/kg) on locomotor activity, in mice, in combination to a single, sub-maximal dose of amphetamine (2 mg/kg) was carried out (Figure 2). […] Although not significant, there was a trend toward an increase in locomotor activity at the dose of 5 mg/kg as well (28% increase, p = 0.32).
FIGURE 2 In vivo studies with compound 22 co-injected with amphetamine in WT mice. Wild type C57BL/6J mice were first habituated for 30 min followed by the co-injection of amphetamine (2 mg/kg) and saline or compound 22 at doses 5, 15, 20, 25, 30, and 50 mg/kg. The locomotor activity was assessed for 60 min after the injection. (A) Locomotor activity over time for 2 mg/kg amphetamine only or co-injected with 5, 15, or 20 mg/kg compound 22; (B) locomotor activity over time for 2 mg/kg amphetamine only or co-injected with 30 or 50 mg/kg compound 22; (C) sum of locomotor activity over 60 min after the injection of amphetamine and compound 22. Data are means ± SEM; N = 12–18 for compound 22 treated alone and N = 66 for amphetamine treated alone. A one way ANOVA was performed [F(5,126) = 4.788, p = 0.0005] followed by Dunnett’s post hoc analyses (^∗p < 0.05, ^∗∗∗p < 0.001).

Structures are written as SMILES.

As to `Clc1ccc(CNCc2ccc(Cn3cncn3)cc2)c(Cl)c1` [compound 22], the “effect on basal locomotor activity” value in test [1] is “did not significantly alter”. Also, the stereotypic counts result in test [2] was “increase in stereotypic counts”. In addition, the “increase in amphetamine-stimulated locomotor activity” value was 28% in test [3] (5 mg/kg i.p. co-injected with amphetamine 2 mg/kg, not significant, p = 0.32); 44% in test [3] (15 mg/kg i.p. co-injected with amphetamine 2 mg/kg, p = 0.04); 57% in test [3] (20 mg/kg i.p. co-injected with amphetamine 2 mg/kg, p = 0.02); 77% in test [3] (30 mg/kg i.p. co-injected with amphetamine 2 mg/kg, p = 0.0009). The “change in amphetamine-stimulated locomotor activity” value in test [3] (50 mg/kg i.p. co-injected with amphetamine 2 mg/kg) is “no difference in locomotor activity”.
